Experiments:
Vero [1] = experiment: Cytotoxicity against African green monkey Vero cells assessed as reduction in cell viability using compound addition to cell culture cells in log phase of growth and incubated for 48 hrs by MTT assay; assay type: cell-based, Chlorocebus sabaeus
A549 [2] = experiment: Cytotoxicity against human A549 cells assessed as reduction in cell viability using compound addition to cell culture cells in log phase of growth and incubated for 48 hrs by MTT assay; assay type: functional, cell-based
HeLa [3] = experiment: Cytotoxicity against human HeLa cells assessed as reduction in cell viability using compound addition to cell culture cells in log phase of growth and incubated for 48 hrs by MTT assay; assay type: functional, cell-based
Vero [4] = experiment: Cytotoxicity against African green monkey Vero cells assessed as reduction in cell viability using compound addition to cell culture cells in lag phase of growth and incubated for 48 hrs by MTT assay; assay type: cell-based, Chlorocebus sabaeus
MCF7 [5] = experiment: Cytotoxicity against human MCF7 cells assessed as reduction in cell viability using compound addition to cell culture cells in lag phase of growth and incubated for 48 hrs by MTT assay; assay type: functional, cell-based
HeLa [6] = experiment: Cytotoxicity against human HeLa cells assessed as reduction in cell viability using compound addition to cell culture cells in lag phase of growth and incubated for 48 hrs by MTT assay; assay type: functional, cell-based
MCF7 [7] = experiment: Cytotoxicity against human MCF7 cells assessed as reduction in cell viability using compound addition to cell culture cells in log phase of growth and incubated for 48 hrs by MTT assay; assay type: functional, cell-based
A549 [8] = experiment: Cytotoxicity against human A549 cells assessed as reduction in cell viability using compound addition to cell culture cells in lag phase of growth and incubated for 48 hrs by MTT assay; assay type: functional, cell-based
[9] = Chlorocebus sabaeus, Vero, 48 h, read-out: IC50
[10] = Homo sapiens, A549, 48 h, read-out: IC50
[11] = Homo sapiens, HeLa, 48 h, read-out: IC50
[12] = Homo sapiens, MCF7, 48 h, read-out: IC50

SMILES	IC50 (Vero [1]; vero)	IC50 (A549 [2]; a549)	IC50 (HeLa [3]; hela)	IC50 (Vero [4]; vero)	IC50 (MCF7 [5]; mcf7)	IC50 (HeLa [6]; hela)	IC50 (MCF7 [7]; mcf7)	IC50 (A549 [8]; a549)	IC50 (Vero [1]; [9]) [µM]	IC50 (A549 [2]; [10]) [µM]	IC50 (HeLa [3]; [11]) [µM]	IC50 (Vero [4]; [9]) [µM]	IC50 (MCF7 [5]; [12]) [µM]	IC50 (HeLa [6]; [11]) [µM]	IC50 (MCF7 [7]; [12]) [µM]	IC50 (A549 [8]; [10]) [µM]
CCCCCCCCCCCC(=O)OCC1=C(C)C[C@H]([C@@H](C)[C@H]2CC[C@H]3[C@@H]4C[C@H]5O[C@]56[C@@H](OC(=O)CCCCCCCCCCC)C=CC(=O)[C@]6(C)[C@H]4CC[C@]23C)OC1=O	Nd(Insoluble)	Nd(Insoluble)	Nd(Insoluble)	Nd(Insoluble)	Nd(Insoluble)	Nd(Insoluble)	Nd(Insoluble)	Nd(Insoluble)								
CC1=C(C)C(=O)O[C@@H]([C@@H](C)[C@H]2CC[C@H]3[C@@H]4C[C@H]5O[C@]56[C@@H](O)CC[C@@H](O)[C@]6(C)[C@H]4CC[C@]23C)C1									> 40	> 40	> 40	> 40	> 40	> 40	> 40	> 40
CC1=C(CO)C(=O)O[C@@H]([C@@H](C)[C@H]2CC[C@H]3[C@@H]4C[C@H]5O[C@]56[C@@H](O)[C@H]5O[C@H]5C(=O)[C@]6(C)[C@H]4CC[C@]23C)C1									> 40	> 40	> 40	> 40	> 40	> 40	> 40	> 40
CCCCCCCCCCCC(=O)OCC1=C(C)C[C@H]([C@@H](C)[C@H]2CC[C@H]3[C@@H]4C[C@H]5O[C@]56[C@@H](O)C=CC(=O)[C@]6(C)[C@H]4CC[C@]23C)OC1=O									4.7	12.2	4.7	1.9	2.4	3.7	3.5	10.2
CCC(=O)OCC1=C(C)C[C@H]([C@@H](C)[C@H]2CC[C@H]3[C@@H]4C[C@H]5O[C@]56C(=O)C=CC(=O)[C@]6(C)[C@H]4CC[C@]23C)OC1=O									1.1	8.3	6.8	3.8	6	4.7	2.3	4.2
CC(=O)OCC1=C(C)C[C@H]([C@@H](C)[C@H]2CC[C@H]3[C@@H]4C[C@H](Cl)[C@]5(O)[C@@H](O)C=CC(=O)[C@]5(C)[C@H]4CC[C@]23C)OC1=O									6.5	17.1	14.8	4.8	10.9	16.1	7.2	10.8
C=CCOC(=O)/C(CO)=C(C)\C=C\[C@@H](C)[C@H]1CC[C@H]2[C@@H]3C[C@H]4O[C@]45[C@@H](O)C=CC(=O)[C@]5(C)[C@H]3CC[C@]12C									4.7	8.3	7.1	2.2	2.4	4.2	2.4	7.9
CC1=C(COC(=O)C(C)(C)C)C(=O)O[C@@H]([C@@H](C)[C@H]2CC[C@H]3[C@@H]4C[C@H]5O[C@]56C(=O)C=CC(=O)[C@]6(C)[C@H]4CC[C@]23C)C1									1	2.3	1.9	4.1	1	4	1.2	3.7
CC1=C(CCl)C(=O)O[C@@H]([C@@H](C)[C@H]2CC[C@H]3[C@@H]4C[C@H]5O[C@]56[C@@H](O)C=CC(=O)[C@]6(C)[C@H]4CC[C@]23C)C1									0.6	3.6	2.8	0.5	1.1	2.5	1	2
CC1=C(COC(=O)c2ccoc2)C(=O)O[C@@H]([C@@H](C)[C@H]2CC[C@H]3[C@@H]4C[C@H](Cl)[C@]5(O)[C@@H](O)C=CC(=O)[C@]5(C)[C@H]4CC[C@]23C)C1									31.2	> 40	> 40	30.6	33.5	> 40	28.6	> 40
CCCCN[C@H]1CC(=O)[C@]2(C)[C@H]3CC[C@]4(C)[C@@H]([C@H](C)[C@H]5CC(C)=C(CO)C(=O)O5)CC[C@H]4[C@@H]3C[C@H]3O[C@]32[C@H]1O									20.6	9.6	8.4	13.6	7.6	9.6	6.9	21.8
COC(=O)CCC(=O)OCC1=C(C)C[C@H]([C@@H](C)[C@H]2CC[C@H]3[C@@H]4C[C@H]5O[C@]56[C@@H](O)C=CC(=O)[C@]6(C)[C@H]4CC[C@]23C)OC1=O									0.6	3.7	2.9	0.6	0.4	0.9	1.6	2.3
C=C1C(=O)O[C@@H]([C@@H](C)[C@H]2CC[C@H]3[C@@H]4C[C@H]5O[C@]56[C@@H](O)[C@@H](OC)CC(=O)[C@]6(C)[C@H]4CC[C@]23C)C=C1C									> 40	> 40	> 40	> 40	> 40	> 40	23	> 40
CC1=C(CO)C(=O)O[C@@H]([C@@H](C)[C@H]2CC[C@H]3[C@@H]4C[C@H]5O[C@]56[C@@H](O)[C@@H](O)CC(=O)[C@]6(C)[C@H]4CC[C@]23C)C1 [VISCOSALACTONE B]									> 40	> 40	> 40	> 40	> 40	> 40	> 40	> 40
CC1=C(CO[Si](C)(C)C(C)(C)C)C(=O)O[C@@H]([C@@H](C)[C@H]2CC[C@H]3[C@@H]4C[C@H](O)[C@]5(O)[C@@H](O)C=CC(=O)[C@]5(C)[C@H]4CC[C@]23C)C1									7.6	10	12	7.9	7.5	14.8	5.6	14.2
COC(=O)CCC(=O)OCC1=C(C)C[C@H]([C@@H](C)[C@H]2CC[C@H]3[C@@H]4C[C@H]5O[C@]56[C@@H](OC(=O)CCC(=O)OC)C=CC(=O)[C@]6(C)[C@H]4CC[C@]23C)OC1=O									0.6	3.4	2.9	0.7	1.4	1.8	1.5	2.1
CC1=C(COC(=O)c2cccc3ccccc23)C(=O)O[C@@H]([C@@H](C)[C@H]2CC[C@H]3[C@@H]4C[C@H]5O[C@]56[C@@H](OC(=O)c5cccc7ccccc57)C=CC(=O)[C@]6(C)[C@H]4CC[C@]23C)C1									> 40	> 40	> 40	> 40	> 40	> 40	> 40	> 40
COCC1=C(C)C[C@H]([C@@H](C)[C@H]2CC[C@H]3[C@@H]4C[C@H]5O[C@]56[C@@H](O)[C@@H](OC)CC(=O)[C@]6(C)[C@H]4CC[C@]23C)OC1=O									> 40	> 40	> 40	36.9	26.9	> 40	21.6	> 40
CC1=C(CO)C(=O)O[C@@H]([C@@H](C)[C@H]2CC[C@H]3[C@@H]4C[C@@H](O)[C@]56ON[C@H](CC(=O)[C@]5(C)[C@H]4CC[C@]23C)[C@@H]6O)C1									> 40	> 40	> 40	> 40	> 40	> 40	> 40	> 40
CC1=C(CO)C(=O)O[C@@H]([C@@H](C)[C@H]2CC[C@H]3[C@@H]4C[C@H]5O[C@]56[C@@H](O)[C@@H](NCc5ccccc5)CC(=O)[C@]6(C)[C@H]4CC[C@]23C)C1									7.8	13.8	11	13.1	7.2	8.5	6.6	10
CC1=C(CO)C(=O)O[C@@H]([C@@H](C)[C@H]2CC[C@H]3[C@@H]4C[C@H]5O[C@]56[C@@H](O)CC[C@@H](O)[C@]6(C)[C@H]4CC[C@]23C)C1									> 40	> 40	> 40	> 40	> 40	> 40	> 40	> 40
COC(=O)CCC(=O)OCC1=C(C)C[C@H]([C@@H](C)[C@H]2CC[C@H]3[C@@H]4C[C@H](Cl)[C@]5(O)[C@@H](OC(=O)CCC(=O)OC)C=CC(=O)[C@]5(C)[C@H]4CC[C@]23C)OC1=O									4.1	8.9	8	3.9	5.5	14	4.8	7.8

From ChEMBL document CHEMBL4190346, “Structure-based design, synthesis, and biological evaluation of withaferin A-analogues as potent apoptotic inducers” (Eur J Med Chem, 2017)
